Where no end group is shown, it is not given here. [ ]: non-standard residue; d: D form.
How the values were obtained:
tumour = details: animal models of disease; cited from earlier work
cancer cells = details: in vitro; cited from earlier work
[1] = system: Gram-positive and Gram-negative bacteria; details: medically-relevant species of Gram-positive and Gram-negative bacteria; cited from earlier work
[2] = system: MC38 colon carcinoma cells; experiment: MC38 colon carcinoma mouse model, tumour volume by caliper; format: in vivo; details: female C57/BL6N mice with MC38 tumours; CyPep-1 2 mg/kg intratumoural days 1 and 2; anti-PD-1 antibody 5 mg/kg intraperitoneal days 4, 8, 11, 15; unpaired two-tailed t-test; combination P=0.02
Method: Female C57/BL6N mice were shaved at the intended site of tumour inoculation. 4 days later the mice were implanted with 5×10^5 MC38 colon carcinoma cells in a mixture of 50% PBS and 50% matrigel in a total injection volume of 100 μl.
Tumour sizes were measured by caliper. When the median tumour volume reached 100 mm^3, 40 mice were randomised to four groups: 1) Ctr_IT; 2) Ctr_IT_PD1; 3) CyPep_IT; and 4) CyPep_IT_PD1.
The Ctr_IT group were administered 0.05 ml/kg intratumoural PBS on days 1 and 2.
The Ctr_IT_PD1 group were administered 0.05 ml/kg/day intratumoural PBS on days 1 and 2, and 5 mg/kg intraperitoneal anti-PD-1 antibody on days 4, 8, 11 and 15. The anti-PD-1 antibody was administered in PBS at a concentration of 1 mg/ml.
The CyPep_IT group were administered 2 mg/kg CyPep-1 on days 1 and 2. Administration was intratumoural in PBS at a concentration of 40 mg/ml.
The CyPep_IT_PD1 group were administered 2 mg/kg intratumoural CyPep-1 in PBS at a concentration of 40 mg/ml on days 1 and 2; and 5 mg/kg intraperitoneal anti-PD-1 antibody on days 4, 8, 11 and 15, in PBS at a concentration of 1 mg/ml.
All groups were standardised prior to checkpoint inhibitor administration by excluding animals with tumours+/−>2X average at day three. […] Average tumour volumes of the groups were analysed by unpaired two-tailed t-test, and the tumours were also histologically analysed.

CyPep-1: all D-amino acid peptide of SEQ ID NO: 1; Conductin/Axin2 fragment coupled to the C-terminus of the HIV-TAT cell-penetrating peptide ([dY]G[dR][dK][dK][dR][dR][dQ][dR][dR][dR]G[dK][dT][dL][dR][dV][dA][dK][dA][dI][dY][dK][dR][dY][dI][dE])
anti-tumour effect (tumour): strong anti-tumour effect
tolerability (tumour): well tolerated
selective cytotoxicity towards cancer cells (cancer cells): selectively cytotoxic towards cancer cells
bacteriocidal effect [1]: potent bacteriocidal effect
tumour growth compared to the control group which received only PBS [2]: no statistically-significant difference

Source: US20210154268A1, “COMBINATION THERAPY USING A PEPTIDE” (CYTOVATION AS, priority 2018, published 2021)
